Values after ≈ are worked out from the molar mass of the structure shown.
Columns and labels:
MRSA ATCC BAA 44 = experiment: Broth microdilution MIC, MRSA ATCC BAA 44; assay type: cell-based, Staphylococcus aureus; conditions: for MIC MRSA: Table 2 pilot library screen; for MIC MRSA BAA 44: Table 3 nine-strain screen
Method: (§1) Each member of the pilot library was tested for antibiotic activity. Activity was quantified by measuring the MIC of each derivative against a variety of representative pathogenic bacterial strains using the microdilution protocol (CSLI, Performance Standards for Antimicrobial Susceptibility Testing; Nineteenth Informational Supplement, Clinical and Laboratory Standards Institute, Wayne, Pa., 2009). A. baumannii, E. coli, MSSA, and MRSA were used for initial evaluation. […] Compounds 4d, 4n, and 4o were determined to be the lead compounds.
(§2) Once it was noted that compounds were active against MSSA and MRSA, the library was tested against various MRSA strains isolated from a nosocomial environment. MRSA has emerged as a major cause of illness and death in hospitals. These illnesses include lower respiratory tract infections, surgical site infections, cardiovascular infections and pneumonia. Nine different MRSA strains were obtained, and lead compounds 4d and 4o were screened for activity.
(§3) Broth Microdilution Method for MIC Determination.
(§4) Overnight cultures of bacterial strain were subcultured to 5×10^5 CFU/mL in Mueller-Hinton medium (Fluka #70192). The resulting bacterial suspension was aliquoted (1.0 mL) into culture tubes. Samples were prepared from these culture tubes containing either 256 μg/mL of specified antibiotic or no test compound as a control. Samples were then aliquoted (200 μL) into the first row of wells of a 96-well microtiter plate in which subsequent wells were prefilled with 100 μL of Mueller-Hinton medium based 5×10^5 CFU/mL bacterial subculture. Using the multichannel pipettor set at 100 μL, row one wells were mixed 8-10 times. Then, 100 μL were withdrawn and transferred to row two. Row two wells were mixed 8-10 times followed by a 100 μL transfer from row two to row three. This procedure was used to serial dilute the rest of the rows of the microtier plate. The microtiter plate sample was then covered with a microtiter plate lid and then placed in a covered plastic container. The chamber was incubated under stationary conditions at 37° C.

MSSA = experiment: Broth microdilution MIC, MSSA; assay type: cell-based, Staphylococcus aureus; conditions: Mueller-Hinton medium, 37° C., 16 hours
Method: as §1, §3, §4

E. coli = experiment: Broth microdilution MIC, E. coli; assay type: cell-based; conditions: Mueller-Hinton medium, 37° C., 16 hours
Method: as §1, §3, §4

A. baumannii = experiment: Broth microdilution MIC, A. baumannii; assay type: cell-based; conditions: Mueller-Hinton medium, 37° C., 16 hours
Method: as §1, §3, §4

MRSA ATCC BAA 1685 = experiment: Broth microdilution MIC, MRSA ATCC BAA 1685; assay type: cell-based, Staphylococcus aureus
Method: as §2, §3
as §4, with “The microtiter plate sample was then covered with a microtiter plate lid and then placed in a covered plastic container. The chamber was incubated under stationary conditions at 37° C.” left out

MRSA ATCC BAA 811 = experiment: Broth microdilution MIC, MRSA ATCC BAA 811; assay type: cell-based, Staphylococcus aureus
Method: as §2, §3
as §4, with “The microtiter plate sample was then covered with a microtiter plate lid and then placed in a covered plastic container. The chamber was incubated under stationary conditions at 37° C.” left out

MRSA ATCC 700789 = experiment: Broth microdilution MIC, MRSA ATCC 700789; assay type: cell-based, Staphylococcus aureus
Method: as §2, §3
as §4, with “The microtiter plate sample was then covered with a microtiter plate lid and then placed in a covered plastic container. The chamber was incubated under stationary conditions at 37° C.” left out

MRSA ATCC BAA 1753 = experiment: Broth microdilution MIC, MRSA ATCC BAA 1753; assay type: cell-based, Staphylococcus aureus
Method: as §2, §3
as §4, with “The microtiter plate sample was then covered with a microtiter plate lid and then placed in a covered plastic container. The chamber was incubated under stationary conditions at 37° C.” left out

MRSA ATCC BAA 1770 = experiment: Broth microdilution MIC, MRSA ATCC BAA 1770; assay type: cell-based, Staphylococcus aureus
Method: as §2, §3
as §4, with “The microtiter plate sample was then covered with a microtiter plate lid and then placed in a covered plastic container. The chamber was incubated under stationary conditions at 37° C.” left out

MRSA ATCC 43300 = experiment: Broth microdilution MIC, MRSA ATCC 43300; assay type: cell-based, Staphylococcus aureus
Method: as §2, §3
as §4, with “The microtiter plate sample was then covered with a microtiter plate lid and then placed in a covered plastic container. The chamber was incubated under stationary conditions at 37° C.” left out

MRSA ATCC 33591 = experiment: Broth microdilution MIC, MRSA ATCC 33591; assay type: cell-based, Staphylococcus aureus
Method: as §2, §3
as §4, with “The microtiter plate sample was then covered with a microtiter plate lid and then placed in a covered plastic container. The chamber was incubated under stationary conditions at 37° C.” left out

MRSA ATCC BAA 1556 = experiment: Broth microdilution MIC, MRSA ATCC BAA 1556; assay type: cell-based, Staphylococcus aureus
Method: as §2, §3
as §4, with “The microtiter plate sample was then covered with a microtiter plate lid and then placed in a covered plastic container. The chamber was incubated under stationary conditions at 37° C.” left out

Cc1nc(N)n(-c2ccccc2)c1-c1ccccc1 [Compound 4a]
MIC MRSA (MRSA ATCC BAA 44): 256 mg/L (≈ 1030 µM)
MIC MSSA (MSSA): 256 mg/L (≈ 1030 µM)
MIC E. coli (E. coli): 256 mg/L (≈ 1030 µM)
MIC A. baumannii (A. baumannii): 128 mg/L (≈ 513 µM)

CCCCCCc1nc(N)n(-c2ccccc2)c1-c1ccccc1 [Compound 4b]
MIC MRSA (MRSA ATCC BAA 44): 8 mg/L (≈ 25 µM)
MIC MSSA (MSSA): 16 mg/L (≈ 50.1 µM)
MIC E. coli (E. coli): >256 mg/L
MIC A. baumannii (A. baumannii): >256 mg/L

Nc1nc(-c2ccccc2)c(-c2ccccc2)n1-c1ccccc1 [Compound 4c]
MIC MRSA (MRSA ATCC BAA 44): >256 mg/L
MIC MSSA (MSSA): >256 mg/L
MIC E. coli (E. coli): >256 mg/L
MIC A. baumannii (A. baumannii): >256 mg/L

CCCCCCCc1ccc(-n2c(N)nc(C)c2-c2ccccc2)cc1 [Compound 4d]
MIC MRSA (MRSA ATCC BAA 44): 2 mg/L (≈ 5.76 µM)
MIC MRSA BAA 44 (MRSA ATCC BAA 44): 2 mg/L (≈ 5.76 µM)
MIC MSSA (MSSA): 4 mg/L (≈ 11.5 µM)
MIC MRSA BAA 1685 (MRSA ATCC BAA 1685): 4 mg/L (≈ 11.5 µM)
MIC MRSA BAA 811 (MRSA ATCC BAA 811): 2 mg/L (≈ 5.76 µM)
MIC MRSA 700789 (MRSA ATCC 700789): 4 mg/L (≈ 11.5 µM)
MIC E. coli (E. coli): >256 mg/L
MIC MRSA BAA 1753 (MRSA ATCC BAA 1753): 4 mg/L (≈ 11.5 µM)
MIC MRSA BAA 1770 (MRSA ATCC BAA 1770): 8 mg/L (≈ 23 µM)
MIC MRSA 43300 (MRSA ATCC 43300): 2 mg/L (≈ 5.76 µM)
MIC A. baumannii (A. baumannii): 64 mg/L (≈ 184 µM)
MIC MRSA 33591 (MRSA ATCC 33591): 8 mg/L (≈ 23 µM)
MIC MRSA BAA 1556 (MRSA ATCC BAA 1556): 4 mg/L (≈ 11.5 µM)

CCCCCCCc1ccc(-n2c(N)nc(CCCCCC)c2-c2ccccc2)cc1 [Compound 4e]
MIC MRSA (MRSA ATCC BAA 44): 128 mg/L (≈ 306 µM)
MIC MSSA (MSSA): >256 mg/L
MIC E. coli (E. coli): >256 mg/L
MIC A. baumannii (A. baumannii): >256 mg/L

CCCCCCCc1ccc(-n2c(N)nc(-c3ccccc3)c2-c2ccccc2)cc1 [Compound 4f]
MIC MRSA (MRSA ATCC BAA 44): >256 mg/L
MIC MSSA (MSSA): >256 mg/L
MIC E. coli (E. coli): >256 mg/L
MIC A. baumannii (A. baumannii): >256 mg/L

CCCCCCCCCCc1ccc(-n2c(N)nc(C)c2-c2ccccc2)cc1 [Compound 4g]
MIC MRSA (MRSA ATCC BAA 44): 4 mg/L (≈ 10.3 µM)
MIC MSSA (MSSA): 32 mg/L (≈ 82.1 µM)
MIC E. coli (E. coli): >256 mg/L
MIC A. baumannii (A. baumannii): >256 mg/L

CCCCCCCCCCc1ccc(-n2c(N)nc(CCCCCC)c2-c2ccccc2)cc1 [Compound 4h]
MIC MRSA (MRSA ATCC BAA 44): >256 mg/L
MIC MSSA (MSSA): >256 mg/L
MIC E. coli (E. coli): >256 mg/L
MIC A. baumannii (A. baumannii): >256 mg/L

CCCCCCCCCCc1ccc(-n2c(N)nc(-c3ccccc3)c2-c2ccccc2)cc1 [Compound 4i]
MIC MRSA (MRSA ATCC BAA 44): >256 mg/L
MIC MSSA (MSSA): >256 mg/L
MIC E. coli (E. coli): >256 mg/L
MIC A. baumannii (A. baumannii): >256 mg/L

CCCCCCc1nc(N)n(-c2ccc(-c3ccccc3)cc2)c1-c1ccccc1 [Compound 4j]
MIC MRSA (MRSA ATCC BAA 44): 4 mg/L (≈ 10.1 µM)
MIC MSSA (MSSA): 4 mg/L (≈ 10.1 µM)
MIC E. coli (E. coli): >256 mg/L
MIC A. baumannii (A. baumannii): >256 mg/L

Nc1nc(-c2ccccc2)c(-c2ccccc2)n1-c1ccc(-c2ccccc2)cc1 [Compound 4k]
MIC MRSA (MRSA ATCC BAA 44): >256 mg/L
MIC MSSA (MSSA): >256 mg/L
MIC E. coli (E. coli): >256 mg/L
MIC A. baumannii (A. baumannii): >256 mg/L

CCCCCCc1nc(N)n(-c2ccccc2)c1-c1ccc(C)cc1 [Compound 4l]
MIC MRSA (MRSA ATCC BAA 44): 4 mg/L (≈ 12 µM)
MIC MSSA (MSSA): 8 mg/L (≈ 24 µM)
MIC E. coli (E. coli): >256 mg/L
MIC A. baumannii (A. baumannii): >256 mg/L

Cc1ccc(-c2c(-c3ccccc3)nc(N)n2-c2ccccc2)cc1 [Compound 4m]
MIC MRSA (MRSA ATCC BAA 44): >256 mg/L
MIC MSSA (MSSA): >256 mg/L
MIC E. coli (E. coli): >256 mg/L
MIC A. baumannii (A. baumannii): >256 mg/L

CCCc1ccc(-n2c(N)nc(C)c2-c2ccccc2)cc1 [Compound 4n]
MIC MRSA (MRSA ATCC BAA 44): 32 mg/L (≈ 110 µM)
MIC MSSA (MSSA): 32 mg/L (≈ 110 µM)
MIC E. coli (E. coli): 64 mg/L (≈ 220 µM)
MIC A. baumannii (A. baumannii): 64 mg/L (≈ 220 µM)

CCCCCc1ccc(-n2c(N)nc(C)c2-c2ccccc2)cc1 [Compound 4o]
MIC MRSA (MRSA ATCC BAA 44): 4 mg/L (≈ 12.5 µM)
MIC MRSA BAA 44 (MRSA ATCC BAA 44): 4 mg/L (≈ 12.5 µM)
MIC MSSA (MSSA): 8 mg/L (≈ 25 µM)
MIC MRSA BAA 1685 (MRSA ATCC BAA 1685): 8 mg/L (≈ 25 µM)
MIC MRSA BAA 811 (MRSA ATCC BAA 811): 8 mg/L (≈ 25 µM)
MIC MRSA 700789 (MRSA ATCC 700789): 8 mg/L (≈ 25 µM)
MIC E. coli (E. coli): >256 mg/L
MIC MRSA BAA 1753 (MRSA ATCC BAA 1753): 8 mg/L (≈ 25 µM)
MIC MRSA BAA 1770 (MRSA ATCC BAA 1770): 8 mg/L (≈ 25 µM)
MIC MRSA 43300 (MRSA ATCC 43300): 8 mg/L (≈ 25 µM)
MIC A. baumannii (A. baumannii): 16 mg/L (≈ 50.1 µM)
MIC MRSA 33591 (MRSA ATCC 33591): 8 mg/L (≈ 25 µM)
MIC MRSA BAA 1556 (MRSA ATCC BAA 1556): 8 mg/L (≈ 25 µM)

Source: US9723837B2, “Imidazole derivatives useful for controlling microbial growth” (North Carolina State University, priority 2012, dated 2017)
